Measurements taken from ChEMBL document CHEMBL1687782, “High-resolution crystal structure of the subclass B3 metallo-beta-lactamase BJP-1: rational basis for substrate specificity and interaction with sulfonamides” (Antimicrob Agents Chemother, 2010).

Assays:
Fluoribacter gormanii [1] = test: Activity at Fluoribacter gormanii 1K07 metallo-beta-lactamase FEZ-1
[2] = system: Stenotrophomonas maltophilia; test: Ratio of Kcat to Km for Stenotrophomonas maltophilia 1SML metallo-beta-lactamase L1
[3] = system: Stenotrophomonas maltophilia; test: Activity at Stenotrophomonas maltophilia 1SML metallo-beta-lactamase L1
Bradyrhizobium japonicum [4] = test: Activity at Bradyrhizobium japonicum metallo-beta-lactamase BJP-1
Fluoribacter gormanii [5] = test: Ratio of Kcat to Km for Fluoribacter gormanii 1K07 metallo-beta-lactamase FEZ-1
Bradyrhizobium japonicum [6] = test: Ratio of Kcat to Km for Bradyrhizobium japonicum metallo-beta-lactamase BJP-1

| SMILES | Km (Fluoribacter gormanii [1]) | kcat/Km [2] | Km [3] | Km (Bradyrhizobium japonicum [4]) | kcat/Km (Fluoribacter gormanii [5]) | kcat/Km (Bradyrhizobium japonicum [6]) |
| --- | --- | --- | --- | --- | --- | --- |
| C[C@@H](O)[C@H]1C(=O)N2C(C(=O)O)=C(SCCNC=N)C[C@H]12 | > 1000 µM | 7.3 ×10⁵ /M/s | 90 µM | 260 µM | 2 ×10⁵ /M/s | 6 ×10⁴ /M/s |
| CCN1CCN(C(=O)N[C@@H](C(=O)N[C@@H]2C(=O)N3[C@@H]2SC(C)(C)[C@@H]3C(=O)O)c2ccccc2)C(=O)C1=O | 4200 µM | 7 ×10⁶ /M/s | 20 µM | 700 µM | 1.2 ×10⁴ /M/s | 6.7 ×10⁴ /M/s |
| CC1(C)S[C@@H]2[C@H](NC(=O)[C@H](C(=O)O)c3ccsc3)C(=O)N2[C@H]1C(=O)O | > 5000 µM | 2.7 ×10⁶ /M/s | 140 µM | – | 1.3 ×10⁴ /M/s | – |
| CC1(C)S[C@@H]2[C@H](NC(=O)[C@H](N)c3ccccc3)C(=O)N2[C@H]1C(=O)O | > 5000 µM | 4.4 ×10⁶ /M/s | 40 µM | 670 µM | 1.1 ×10⁴ /M/s | 1.9 ×10⁴ /M/s |
